Results from the NIST ThermoML archive (doi:10.1021/je700290j).

Assays:
[1] = for surface tension liquid-gas: Ring tensiometer; for mass density / viscosity / speed of sound: 101 kPa, Liquid; for speed of sound: Sing-around technique in a fixed-path interferometer
[2] = xn = mol fraction of the nth substance listed; details: 293.15 K; for surface tension liquid-gas: Ring tensiometer; for speed of sound / mass density / viscosity: 101 kPa, Liquid; for speed of sound: Sing-around technique in a fixed-path interferometer

C1CCNCC1 [piperidine]
[1]
Details	mass density [kg/m3]	speed of sound [m/s]	surface tension liquid-gas [mN/m]	viscosity [mPa·s]
293.15 K	859.87	1389.4	30.27	0.8207
298.15 K	–	–	29.56	–

C1CCNCC1 [piperidine] + C1CCNC1
[2], x1 = 1
Details	mass density [kg/m3]	speed of sound [m/s]	surface tension liquid-gas [mN/m]	viscosity [mPa·s]
–	859.87	1389.4	30.27	0.8207

C1CCNC1 [pyrrolidine]
[1]
Details	mass density [kg/m3]	speed of sound [m/s]	surface tension liquid-gas [mN/m]	viscosity [mPa·s]
293.15 K	863.81	1384.4	30.11	1.551
298.15 K	–	–	29.75	–

C1CCNC1 [pyrrolidine] + C1CCNCC1
[2]
Details	mass density [kg/m3]	speed of sound [m/s]	surface tension liquid-gas [mN/m]	viscosity [mPa·s]
x2 = 0	863.81	1384.4	30.11	1.551
x2 = 0.1043	863.61	1385.4	30.36	1.457
x2 = 0.2304	863.4	1386.3	30.61	1.364
x2 = 0.496	862.79	1388.2	30.56	1.201
x2 = 0.6423	862.19	1390.1	30.51	1.038
x2 = 0.7053	861.89	1390.8	30.47	0.9752
x2 = 0.8273	861.6	1391.5	30.42	0.9124
